Source: PubChem BioAssay (NCI)
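Assay format: 96-well plates, 48-hour exposure. TGI is the concentration that stops growth completely.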

Columns and labels:
Experiment in all cases: NCI tumour cell line growth inhibition, 48 h
[1] = test system: 786-0 renal
[2] = test system: A498 renal
[3] = test system: A549 NSCLC
[4] = test system: ACHN renal
[5] = test system: CAKI-1 renal
[6] = test system: CCRF-CEM leukemia
[7] = test system: DLD-1 colon
[8] = test system: DMS 114 small cell lung
[9] = test system: DMS 273 small cell lung
[10] = test system: EKVX NSCLC
[11] = test system: HCC-2998 colon
[12] = test system: HCT-116 colon
[13] = test system: HCT-15 colon
[14] = test system: HL-60(TB) leukemia
[15] = test system: HOP-62 NSCLC
[16] = test system: HOP-92 NSCLC
[17] = test system: HT29 colon
[18] = test system: IGROV1 ovarian
[19] = test system: K-562 leukemia
[20] = test system: KM12 colon
[21] = test system: KM20L2 colon
[22] = test system: LOX IMVI melanoma
[23] = test system: LXFL 529 NSCLC
[24] = test system: M14 melanoma
[25] = test system: M19-MEL melanoma
[26] = test system: MALME-3M melanoma
[27] = test system: MOLT-4 leukemia
[28] = test system: NCI-H226 lung
[29] = test system: NCI-H23 lung
[30] = test system: NCI-H460 lung
[31] = test system: NCI-H522 lung
[32] = test system: OVCAR-3 ovarian
[33] = test system: OVCAR-4 ovarian
[34] = test system: OVCAR-5 ovarian
[35] = test system: OVCAR-8 ovarian
[36] = test system: RPMI-8226 leukemia
[37] = test system: RXF 393 renal
[38] = test system: RXF-631 renal
[39] = test system: SF-268 CNS
[40] = test system: SF-295 CNS
[41] = test system: SF-539 CNS
[42] = test system: SK-MEL-2 melanoma
[43] = test system: SK-MEL-28 melanoma
[44] = test system: SK-MEL-5 melanoma
[45] = test system: SN12C renal
[46] = test system: SNB-19 CNS
[47] = test system: SNB-75 CNS
[48] = test system: SR leukemia
[49] = test system: SW-620 colon
[50] = test system: TK-10 renal
[51] = test system: U251 CNS
[52] = test system: UACC-257 melanoma
[53] = test system: UACC-62 melanoma
[54] = test system: UO-31 renal
[55] = test system: XF 498 CNS

`CC(=O)OCC1OC(n2cnc3c(I)nc(I)nc32)C(OC(C)=O)C1OC(C)=O` (stereo not given) gave a TGI [1] of 27.8 µM, a TGI [2] of 38.3 µM and a TGI [3] of 32.7 µM. It also gave a TGI [4] of 21.8 µM, a TGI [5] of 4.09 µM and a TGI [6] of 27.4 µM. For the same molecule, the TGI [7] was 24.2 µM, the TGI [8] was 13.1 µM and the TGI [9] was 20.2 µM. The TGI [10] was 33.3 µM, the TGI [11] was 16.9 µM and the TGI [12] was 16.7 µM. It also gave a TGI [13] of 15.6 µM, a TGI [14] of 5.52 µM and a TGI [15] of 34.4 µM. It also gave a TGI [16] of 9.16 µM, a TGI [17] of 19.7 µM and a TGI [18] of 19.8 µM. It also gave a TGI [19] of 13.5 µM, a TGI [20] of 15.6 µM and a TGI [21] of 32.7 µM. For the same molecule, the TGI [22] was 29.4 µM, the TGI [23] was 26.1 µM and the TGI [24] was 31.6 µM. It also gave a TGI [25] of 12.2 µM, a TGI [26] of 33.5 µM and a TGI [27] of 24.8 µM. The TGI [28] was 35.5 µM, the TGI [29] was 16.7 µM and the TGI [30] was 35.9 µM. For the same molecule, the TGI [31] was 3.53 µM, the TGI [32] was 20.1 µM and the TGI [33] was 17.4 µM. The TGI [34] was 35.1 µM, the TGI [35] was 24.1 µM and the TGI [36] was 31.1 µM. The TGI [37] was 38.3 µM, the TGI [38] was 34.9 µM and the TGI [39] was 28.5 µM. It also gave a TGI [40] of 35.1 µM, a TGI [41] of 29.6 µM and a TGI [42] of 33 µM. It also gave a TGI [43] of 28.5 µM, a TGI [44] of 26.1 µM and a TGI [45] of 26.7 µM. It also gave a TGI [46] of 25 µM, a TGI [47] of 30.2 µM and a TGI [48] of 11.8 µM. For the same molecule, the TGI [49] was 28.4 µM, the TGI [50] was 33.6 µM and the TGI [51] was 22.9 µM. It also gave a TGI [52] of 27.5 µM, a TGI [53] of 27.2 µM and a TGI [54] of 31.5 µM. The TGI [55] was 35.9 µM.
